In US9902684B2, “Compound isolated from Isodon forrestii var. forrestii and preparation method and applications thereof” (JIANGSU PROVINCE INSTITUTE OF TRADITIONAL CHINESE MEDICINE, priority 2016, dated 2018):
Residues, ends and D or L forms follow the SMILES beside them. *: point of attachment. Cbz = O=C(OCc1ccccc1)*; CH2F = FC*

Experiments:
[1] = tested on: HepG2 cell; test: Annexin V flow cytometry analysis of apoptosis; assay type: cell-based, human; conditions: FIG. 5
Method: (§1) Dissolving Iso A (purity >99%) in DMSO, and preserving stock solution with concentration of 40 mM in −20° C. Detecting the inhibition effects of Iso A in various cells that includes liver cancer cell, breast cancer cell, lung cancer cell, osteosarcoma cell, melanoma cell, cervical cancer cell etc., and in normal human hepatocyte L02, human embryo lung cell HFL1, human mammary epithelial cell MCF 10A. […] Among tested cells, HepG2 cell is the most sensitive to Iso A, thus HepG2 is selected as a model in follow-up experiments.

[2] = tested on: tumor cells (liver cancer, breast cancer, lung cancer, osteosarcoma, melanoma, cervical cancer cell); test: MTT experiment, growth inhibition of various tumor cells; assay type: cell-based; conditions: Homo sapiens; all tested tumor cells; FIG. 2
Method: as §1

[3] = tested on: hepatocellular carcinoma cell line HepG2; test: MTT assay, HepG2 cell growth; assay type: cell-based, human; conditions: various concentrations, 24 hours; FIG. 3
Method: as §1

[4] = tested on: human normal hepatic cell line L02; test: MTT assay, normal hepatic cell L02 growth; assay type: cell-based; conditions: various concentrations, 24 hours; FIG. 3
Method: as §1

[5] = tested on: HepG2 cells; test: Trypan blue exclusion assay, HepG2; assay type: cell-based, human; conditions: various concentrations, 24 hours; FIG. 4
Method: as §1

[6] = tested on: human normal hepatic cell L02; test: Trypan blue exclusion assay, normal cells; assay type: cell-based; conditions: various concentrations, 24 hours; FIG. 4
Method: as §1

[7] = tested on: HepG2 xenograft; test: Murine xenograft tumor model of hepatocellular carcinoma; assay type: in vivo, BALB/c nude mouse; conditions: 15 mg/kg once daily, 15 days, vs control group
Source text: • a) Cell line: Human hepatocellular carcinoma cell line HepG2 is bought from the Cell Bank of Chinese Academy of Sciences for Type Culture Collection • b) Animal: 20 BALB/c male nude mouse with weight of (13±2 g), the BALB/c mice is bought from Model Animal Research Center of Nanjing University, the animal is bred under the environment without a special pathogen in the Animal Center of Jiangsu Traditional Chinese Medicine Research Institution [SCXK( ? ) 2002-0001]. • c) Pharmaceutical: Iso A 2. Experiment Method: • a) Make of a murine xenograft model ofepatocellular carcinoma: HepG2 cells in log phase are digested with trypin, and suspended with a final density of 2×10^7 cells/ml. Then, 200 μl (100 μl cells+100 μl matrigel) cell suspension is inoculated into the right subaxillary of nude mice with 1 ml injector. • b) Group and administration of experimental animal: grouping when the tumor becomes 100 mm^3 into 10 per group (same average volume per group, too big or small ones are eliminated). Grouping specifically as followings: (1) Iso A 15 mg/kg dose group, (2) solvent control group (0.5% CMC-Na). […] Antitumor effect is determined by tumor inhibition rate. […]

[8] = Toxicity assessment in xenograft mice (weight, serum indices, blood routine); assay type: in vivo, BALB/c nude mouse; conditions: 15 mg/kg
Source text: • a) Cell line: Human hepatocellular carcinoma cell line HepG2 is bought from the Cell Bank of Chinese Academy of Sciences for Type Culture Collection • b) Animal: 20 BALB/c male nude mouse with weight of (13±2 g), the BALB/c mice is bought from Model Animal Research Center of Nanjing University, the animal is bred under the environment without a special pathogen in the Animal Center of Jiangsu Traditional Chinese Medicine Research Institution [SCXK( ? ) 2002-0001]. • c) Pharmaceutical: Iso A 2. Experiment Method: • a) Make of a murine xenograft model ofepatocellular carcinoma: HepG2 cells in log phase are digested with trypin, and suspended with a final density of 2×10^7 cells/ml. Then, 200 μl (100 μl cells+100 μl matrigel) cell suspension is inoculated into the right subaxillary of nude mice with 1 ml injector. • b) Group and administration of experimental animal: grouping when the tumor becomes 100 mm^3 into 10 per group (same average volume per group, too big or small ones are eliminated). Grouping specifically as followings: (1) Iso A 15 mg/kg dose group, (2) solvent control group (0.5% CMC-Na). Administrate one time every day for total 15 days. • c) Sample selection and index observation: • i. observation for normal state: before drug administration, measure the weight and tumor size (tumor volume V=long diameter×short diameter^2/2) one time every day. Observe the locomotor activity, mental state, hair, breath, diet, manure trait and reaction to outside world of the mice. After ending pharmaceutical interference, the mice are anesthetized and the blood is acquired by cardiac puncture. The serum is got by centrifugation and store in −80° C. After the skin of the tumor growing part on the right axilla of the mice is nipped by forceps, use a surgical scissors to cut the skin for exposing the tumor, then use the surgical scissors to dissect the tumor with blunt dissection and use a scale to weigh the tumor, transplanted tumor and calculate the inhibition rate. Antitumor effect is determined by tumor inhibition rate. Tumor inhibition rate (%)=[1−(average weight of tumor in experimental group/average weight of tumor in control group)]×100% • ii. Detecting apoptosis of tumor tissues with TUNEL staining: according to TUNEL apoptosis detection kit specification of Roche Inc. after fixing frozen tissue section in room temperature. • iii. Blood routine examination for assessing the marrow toxicity of Iso A, analyze ALT, AST, ALP level in plasma for assessing hepatotoxicity of Iso A, and measure the creatinine and urea nitrogen for assessing renal damage.
Fabricate mice transplanted hepatocellular carcinoma model, and group mice into control group and Iso A (15 mg/kg) administration group at random. Record the weight and tumor size one time every three days and kill the mice after 15-day-administration for detection and analysis of the tumor tissues, blood etc.

[9] = target: T1, Trx1 (Homo sapiens, UniProt P10599); test: In vitro Trx1 activity, Thioredoxin Activity Fluorescent Assay Kit; assay type: biochemical; parameters: purchased Sino Biological Inc; conditions: read-out: inhibition rate of Trx1 activity
T1 sequence (P10599 1-105): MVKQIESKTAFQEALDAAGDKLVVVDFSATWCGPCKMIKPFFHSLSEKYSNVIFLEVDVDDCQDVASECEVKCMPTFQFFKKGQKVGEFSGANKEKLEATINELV
Method: Trx1 protein was bought from Sino Biological Inc., Trx1 activity detection kit was bought from American Caymen Chemical cooperation.
The in vitro activity of Trx is assayed using the—Thioredoxin Activity Fluorescent Assay Kit (Caymen Chemical). According to the instructions of the kit 2 μl of Iso A with different concentrations (0.195 μM to 100 μM) is added into 0.02 μM Trx mix, following by adding 5 μl of β-NADPH into each sample to incubate in 37° C. for 30 min. Then, a fluorescent substrate is added and Trx1 activity is was recorded as the emission at 518 nm after 488 nm excitation for 30-60 min, with a Thermo Scientific Varioskan Flash fluorescent microplate reader.

[10] = target: T1, Trx1; test: Mass spectrometry analysis of direct conjugation with Trx1 protein; assay type: binding; parameters: purchased Sino Biological Inc; conditions: 2 h room temperature, MALDI mass spectrometry; FIG. 8
Method: Human-derived Trx1 protein (Sino Biological Inc.) is dissolved in distilled water at a 5 mg/ml and stored. In 25 mM Tris-HCl (pH 7.4) buffer, mixi 4 μl Iso A with 140 μl human Trx1 protein to incubate for 2 h in room temperature. Samples after reaction is treated by Shimadzu Biotech Proteome kit for enzymatic hydrolysis with MonoSpin Trypsin, then desalted by MonoSpin® C18 column for mass spectrometry analysis with MALDI 7090 (SHIMADZU).

[11] = target: T1, Trx1; test: Trx1 activity in HepG2 cells (insulin reduction/DTNB); assay type: cell-based; parameters: endogenous in cells; host or cells: HepG2; conditions: 10-30 μM for 8 hours; relative to 0.5% DMSO control; FIG. 7
Method: (§2) Methods for measuring Trx1 activity in cells or tissue samples: using lysates (20 mM HEPES (pH 7.9), 300 mM NaCl, 100 mM KCl, 10 mM EDTA and 0.1% Nonidet P-40, protease-contained inhibitor) to lyse the cells or tissue samples. Pre-treating 90 μg protein at 37° C. for 15 min by using DTT activation buffer (50 mmol/liter HEPES (pH 7.6), 1 mmol/liter EDTA, 1 mg/ml bovine serum albumin, and 2 mmol/liter dithiothreitol). Then adding 20 μl reaction mixture (200 μl of 1 M HEPES (pH 7.6), 40 μl of 0.2 mol/liter EDTA, 40 μl of NADPH (40 mg/ml)) and 500 μl insulin. Adding 5 μl thioredoxin reductase for initial reaction while adding water of same volume into the control group. Incubate the samples in 37° C. for 20 min, and then add 6 M guanidine hydrochloride of 0.25 ml and 0.4 mg/ml DTNB to terminate reaction. Detecting optical absorption of 412 nm.
Cultivate human hepatocellular carcinoma cell line HepG2 in vitro culture. […] Calculate the relative activity of Trxl in each group under the condition that negative control activity is 1.

[12] = target: T1, Trx1; test: Trx1 activity in xenograft tumor tissues; assay type: in vivo, BALB/c nude mouse; parameters: from tissue; host or cells: HepG2 xenograft tumor from BALB/c nude mice; conditions: 15 mg/kg once daily, 15 days; FIG. 12
Method: as §2, with “Detecting optical absorption of 412 nm.” left out
• a) Cell line: Human hepatocellular carcinoma cell line HepG2 is bought from the Cell Bank of Chinese Academy of Sciences for Type Culture Collection • b) Animal: 20 BALB/c male nude mouse with weight of (13±2 g), the BALB/c mice is bought from Model Animal Research Center of Nanjing University, the animal is bred under the environment without a special pathogen in the Animal Center of Jiangsu Traditional Chinese Medicine Research Institution [SCXK( ? ) 2002-0001]. • c) Pharmaceutical: Iso A 2. […] Antitumor effect is determined by tumor inhibition rate. […]

COC(=O)C[C@H](NC(=O)[C@H](C)NC(=O)[C@@H](NC(=O)OCc1ccccc1)C(C)C)C(=O)CF [Z-VAD-FMK, reference compound] (Cbz-Val-Ala-Asp(OMe)-CH2F)
effect of pan-caspase inhibitor on apoptosis induced by Iso A ([1]; HepG2): partially inhibits the apoptosis induced by Iso A

C=C1C(=O)[C@]23C[C@H]1[C@@H](OC(C)=O)[C@H](OC(C)=O)[C@H]2[C@]1(C)C[C@H](OC(C)=O)[C@H](OC(C)=O)C(C)(C)[C@H]1[C@@H](O)C3 [Iso A, Isoforresin A]
IC50 [2]: < 30 µM
inhibition of HepG2 cell growth (MTT) [3]: inhibit the growth of HepG2 cell in a concentration-dependent manner
inhibition of L02 cell growth (MTT) [4]: no obvious inhibitory effects
cell death of HepG2 cells (trypan blue exclusion) [5]: selectively trigger the death of HepG2 cells
toxicity to normal cells (trypan blue exclusion) [6]: obviously not toxic
Annexin V positive cells (apoptosis) ([1]; HepG2, 10 or 20 μM Iso A, 24 hours): increasement of Annexin V positive cells
tumor volume ([7]; FIG. 10): significantly decreased
tumor weight ([7]; FIG. 11): significantly decreased
toxic or side effects on marrow, liver and kidney ([8]; 15 days, xenograft murine model): no toxic or side effects
ALP level in serum ([8]; 15 days, FIG. 13): no obvious difference
ALT level in serum ([8]; 15 days, FIG. 13): no obvious difference
AST level in serum ([8]; 15 days, FIG. 13): no obvious difference
creatinine level in serum ([8]; 15 days, FIG. 14): no obvious difference
urea nitrogen level in serum ([8]; 15 days, FIG. 14): no obvious difference
body weight of mice ([8]; during administration, vs control group, FIG. 9): no difference in weight
inhibition at 2.5 µM [9]: 20%
inhibition at 5 µM [9]: 48.6%
inhibition at 10 µM [9]: 98%
direct binding/conjugation with Trx1 protein (Cys 32/35) [10]: can directly bind with Trx1 protein
Trx1 activity in HepG2 cells [11]: significantly reduced
Trx1 activity in the tumor tissues [12]: significantly decreased
